Experimental data as given in PMC9204419, “A Toolbox for the Generation of Chemical Probes for Baculovirus IAP Repeat Containing Proteins” (Frontiers in Cell and Developmental Biology, 2022).
Where “and” joins values, the source holds several entries; their conditions need not be identical. Equal values may be shown once.

Assays:
[1] = biological target: T1, BIRC7 (Homo sapiens, UniProt Q96CA5); test: NanoBRET cellular target engagement, full-length BIRC7
T1 sequence (Q96CA5 1-298): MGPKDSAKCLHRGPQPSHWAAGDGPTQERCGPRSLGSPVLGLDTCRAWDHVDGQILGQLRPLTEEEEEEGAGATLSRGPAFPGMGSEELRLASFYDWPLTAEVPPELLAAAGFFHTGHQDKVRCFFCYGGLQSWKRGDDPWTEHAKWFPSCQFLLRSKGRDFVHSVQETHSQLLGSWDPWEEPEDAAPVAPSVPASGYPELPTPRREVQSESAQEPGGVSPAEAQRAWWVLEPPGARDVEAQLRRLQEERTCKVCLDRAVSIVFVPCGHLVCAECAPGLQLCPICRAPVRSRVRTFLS
Description: (§1) In brief: Constructs contained the cDNA of full-length or single domains cloned in frame with an N-terminal NanoLuc-fusion as specified in Supplementary Table S2. Plasmids were transfected into HEK293T cells using FuGENE HD (Promega, E2312) and proteins were allowed to express for 20 h. […] The corresponding transfected cells were added and reseeded at a density of 2.5^5 cells/mL after trypsinization and resuspending in Opti-MEM without phenol red (Life Technologies). […] Competitive displacement data were then graphed using GraphPad Prism 9.3 software using a normalized 3-parameter curve fit with the following equation: Y = 100/(1 + 10^(X-LogIC50)).

[2] = biological target: T2, BIRC8 BIR (Homo sapiens, UniProt Q96P09); test: NanoBRET cellular target engagement, single domain BIRC8 BIR
T2 sequence (Q96P09 1-90): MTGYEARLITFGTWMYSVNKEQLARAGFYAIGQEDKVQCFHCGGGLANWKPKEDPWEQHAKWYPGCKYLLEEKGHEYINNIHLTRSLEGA

[3] = biological target: BIRC3 BIR2 (Homo sapiens, UniProt Q13489); test: NanoBRET cellular target engagement, single domain BIRC3 BIR2; settings: Tracer KD,app ± SEM, BIRC3 BIR2, single domain, n = 4
Chain of BIRC3 BIR2 (Q13489 147-253): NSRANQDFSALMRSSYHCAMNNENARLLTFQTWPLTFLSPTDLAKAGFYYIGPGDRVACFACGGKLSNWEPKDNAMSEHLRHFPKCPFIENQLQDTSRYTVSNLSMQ
Description: as §1

[4] = biological target: T3, BIRC4 BIR3 (Homo sapiens, UniProt P98170); test: NanoBRET tracer titration, BIRC4 BIR3; format: cell-based; settings: single domain, n = 4; read-out: Tracer KD,app ± SEM, BIRC4 BIR3
T3 construct: S245 N373; expressed in transfected cells; host or cells: HEK293T
T3 sequence (P98170 245-373): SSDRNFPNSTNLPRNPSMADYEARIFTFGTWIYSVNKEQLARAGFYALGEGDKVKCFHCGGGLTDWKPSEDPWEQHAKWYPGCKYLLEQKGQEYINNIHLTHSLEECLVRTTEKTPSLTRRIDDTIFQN

[5] = biological target: BIRC3 (Homo sapiens, UniProt Q13489); test: NanoBRET cellular target engagement, full-length BIRC3
Chain of BIRC3 (Q13489 whole entry, the tested form may be a part): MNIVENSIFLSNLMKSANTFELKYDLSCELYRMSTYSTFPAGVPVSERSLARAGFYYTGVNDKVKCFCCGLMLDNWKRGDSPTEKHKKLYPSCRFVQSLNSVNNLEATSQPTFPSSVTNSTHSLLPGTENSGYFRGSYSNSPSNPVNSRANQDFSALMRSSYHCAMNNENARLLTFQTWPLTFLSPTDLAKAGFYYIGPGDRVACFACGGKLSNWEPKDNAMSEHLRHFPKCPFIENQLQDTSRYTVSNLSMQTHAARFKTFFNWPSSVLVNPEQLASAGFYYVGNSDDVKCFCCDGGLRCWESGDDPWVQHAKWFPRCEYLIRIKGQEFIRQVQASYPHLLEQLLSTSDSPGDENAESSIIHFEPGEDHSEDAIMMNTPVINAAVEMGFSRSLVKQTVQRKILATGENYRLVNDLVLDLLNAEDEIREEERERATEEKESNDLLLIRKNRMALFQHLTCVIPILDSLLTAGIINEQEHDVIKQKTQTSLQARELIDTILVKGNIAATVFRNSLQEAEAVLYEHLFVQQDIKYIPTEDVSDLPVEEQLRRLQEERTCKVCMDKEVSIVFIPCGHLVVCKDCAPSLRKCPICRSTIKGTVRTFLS

[6] = biological target: T4, BIRC4 BIR2 (Homo sapiens, UniProt P98170); test: NanoBRET tracer titration, BIRC4 BIR2; format: cell-based; settings: single domain, n = 4; read-out: Tracer KD,app ± SEM, BIRC4 BIR2
T4 construct: G144 S253; expressed in transfected cells; host or cells: HEK293T
T4 sequence (P98170 144-253): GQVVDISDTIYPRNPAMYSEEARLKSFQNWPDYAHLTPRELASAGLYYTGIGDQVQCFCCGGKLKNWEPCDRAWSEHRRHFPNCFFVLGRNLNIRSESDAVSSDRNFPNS

[7] = biological target: BIRC2 BIR3 (Homo sapiens, UniProt Q13490); test: NanoBRET cellular target engagement, single domain BIRC2 BIR3
Chain of BIRC2 BIR3 (Q13490 251-372): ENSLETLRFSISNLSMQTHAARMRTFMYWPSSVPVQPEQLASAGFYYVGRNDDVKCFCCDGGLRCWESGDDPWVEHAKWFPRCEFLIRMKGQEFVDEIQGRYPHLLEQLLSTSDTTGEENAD
Description: as §1

[8] = biological target: BIRC2 BIR2 (Homo sapiens, UniProt Q13490); test: NanoBRET cellular target engagement, single domain BIRC2 BIR2; settings: Tracer KD,app ± SEM, BIRC2 BIR2, single domain, n = 4
Chain of BIRC2 BIR2 (Q13490 165-267): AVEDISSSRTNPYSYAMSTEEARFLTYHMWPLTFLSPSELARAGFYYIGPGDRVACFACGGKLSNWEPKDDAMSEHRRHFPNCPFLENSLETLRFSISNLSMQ

[9] = biological target: T5, BIRC1 BIR[2] (Homo sapiens, UniProt Q13075); test: NanoBRET cellular target engagement, single domain BIRC1 BIR[2]; settings: Tracer KD,app ± SEM, BIRC1 BIR[2], single domain (D139-G251), n = 4
T5 sequence (Q13075 139-251): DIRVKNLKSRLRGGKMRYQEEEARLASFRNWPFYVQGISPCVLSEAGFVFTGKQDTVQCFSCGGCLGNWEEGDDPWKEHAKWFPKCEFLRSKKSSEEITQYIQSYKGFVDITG

[10] = biological target: BIRC4 (Homo sapiens, UniProt P98170); test: NanoBRET cellular target engagement, full-length BIRC4
Chain of BIRC4 (P98170 whole entry, the tested form may be a part): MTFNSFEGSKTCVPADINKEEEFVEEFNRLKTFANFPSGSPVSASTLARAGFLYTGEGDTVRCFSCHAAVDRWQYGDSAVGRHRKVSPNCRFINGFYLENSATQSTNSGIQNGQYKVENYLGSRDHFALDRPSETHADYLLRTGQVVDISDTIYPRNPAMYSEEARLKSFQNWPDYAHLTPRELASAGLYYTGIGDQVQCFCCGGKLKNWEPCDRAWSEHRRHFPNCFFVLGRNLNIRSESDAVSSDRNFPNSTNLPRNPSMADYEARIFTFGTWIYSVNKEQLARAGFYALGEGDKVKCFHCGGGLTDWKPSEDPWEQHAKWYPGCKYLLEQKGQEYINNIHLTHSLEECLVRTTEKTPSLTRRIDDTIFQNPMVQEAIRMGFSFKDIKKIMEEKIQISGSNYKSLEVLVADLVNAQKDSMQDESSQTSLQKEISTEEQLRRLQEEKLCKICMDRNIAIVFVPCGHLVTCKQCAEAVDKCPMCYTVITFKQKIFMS
Description: as §1

[11] = biological target: T6, BIRC7 BIR (Homo sapiens, UniProt Q96CA5); test: NanoBRET cellular target engagement, single domain BIRC7 BIR; settings: Tracer KD,app ± SEM, BIRC7 BIR, single domain, n = 4
T6 sequence (Q96CA5 70-176): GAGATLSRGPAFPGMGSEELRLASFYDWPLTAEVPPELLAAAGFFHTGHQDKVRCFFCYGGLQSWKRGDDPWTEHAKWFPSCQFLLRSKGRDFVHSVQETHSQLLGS
Description: as §1

[12] = biological target: T7, BIRC5 (Homo sapiens, UniProt O15392); test: NanoBRET tracer titration, BIRC5; format: cell-based; settings: full-length taken as single BIR domain construct, n = 4; read-out: Tracer KD,app ± SEM, BIRC5
T7 construct: M1 D142; expressed in transfected cells; host or cells: HEK293T
T7 sequence (O15392 whole entry, the tested form may be a part): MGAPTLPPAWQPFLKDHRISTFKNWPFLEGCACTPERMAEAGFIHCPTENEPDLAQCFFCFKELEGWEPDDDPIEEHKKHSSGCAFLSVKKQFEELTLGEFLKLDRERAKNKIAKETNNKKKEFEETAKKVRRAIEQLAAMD

[13] = biological target: T8, BIRC4 BIR1 (Homo sapiens, UniProt P98170); test: NanoBRET tracer titration, BIRC4 BIR1; format: cell-based; settings: single domain, n = 4; read-out: Tracer KD,app ± SEM, BIRC4 BIR1
T8 construct: N4 Q114; expressed in transfected cells; host or cells: HEK293T
T8 sequence (P98170 4-114): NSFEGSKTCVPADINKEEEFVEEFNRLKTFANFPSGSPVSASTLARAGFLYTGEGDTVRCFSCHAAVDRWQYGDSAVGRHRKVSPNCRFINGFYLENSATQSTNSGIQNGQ

[14] = biological target: T9, BIRC2 BIR1 (Homo sapiens, UniProt Q13490); test: NanoBRET tracer titration, BIRC2 BIR1; format: cell-based; settings: single domain, n = 4; read-out: Tracer KD,app ± SEM, BIRC2 BIR1
T9 construct: D24 S134; expressed in transfected cells; host or cells: HEK293T
T9 sequence (Q13490 24-134): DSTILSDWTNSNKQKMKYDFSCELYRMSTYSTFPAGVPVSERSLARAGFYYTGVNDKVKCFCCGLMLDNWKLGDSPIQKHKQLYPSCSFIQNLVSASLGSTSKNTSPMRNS

[15] = biological target: BIRC2 (Homo sapiens, UniProt Q13490); test: NanoBRET cellular target engagement, full-length BIRC2; settings: Tracer K D, full-length BIRC2, full-length
Chain of BIRC2 (Q13490 whole entry): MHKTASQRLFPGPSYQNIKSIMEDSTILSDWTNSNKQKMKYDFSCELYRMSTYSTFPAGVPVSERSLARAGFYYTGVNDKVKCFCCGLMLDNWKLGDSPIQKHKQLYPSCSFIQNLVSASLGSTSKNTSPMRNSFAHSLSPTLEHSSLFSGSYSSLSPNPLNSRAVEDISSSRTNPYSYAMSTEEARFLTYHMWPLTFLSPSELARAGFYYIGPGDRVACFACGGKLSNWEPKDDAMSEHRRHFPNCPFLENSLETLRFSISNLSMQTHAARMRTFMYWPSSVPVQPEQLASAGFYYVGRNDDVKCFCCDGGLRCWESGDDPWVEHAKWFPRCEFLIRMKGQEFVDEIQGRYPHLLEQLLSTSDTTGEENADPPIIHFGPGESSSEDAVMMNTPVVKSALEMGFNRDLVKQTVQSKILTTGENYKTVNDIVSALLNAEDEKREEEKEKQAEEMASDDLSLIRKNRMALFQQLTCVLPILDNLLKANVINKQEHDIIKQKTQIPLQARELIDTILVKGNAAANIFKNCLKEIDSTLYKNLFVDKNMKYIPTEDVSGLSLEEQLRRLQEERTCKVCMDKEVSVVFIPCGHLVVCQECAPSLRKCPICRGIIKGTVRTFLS
Description: as §1

[16] = biological target: T10, BIRC8 (Homo sapiens, UniProt Q96P09); test: NanoBRET cellular target engagement, full-length BIRC8
T10 sequence (Q96P09 1-236): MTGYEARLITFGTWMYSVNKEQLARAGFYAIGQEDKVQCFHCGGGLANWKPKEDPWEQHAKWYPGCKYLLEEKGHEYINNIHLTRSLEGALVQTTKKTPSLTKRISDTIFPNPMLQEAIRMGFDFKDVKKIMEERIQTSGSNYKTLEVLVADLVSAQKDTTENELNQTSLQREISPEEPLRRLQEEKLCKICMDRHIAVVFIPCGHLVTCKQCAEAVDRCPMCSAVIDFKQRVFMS

[17] = biological target: T11, BIRC1 BIR1 (Homo sapiens, UniProt Q13075); test: NanoBRET tracer titration, BIRC1 BIR1 (third BIR domain of BIRC1); format: cell-based; settings: third BIR domain of BIRC1 (N256-Q391), n = 4; read-out: Tracer KD,app ± SEM, BIRC1 BIR1
T11 construct: N256 Q391; expressed in transfected cells; host or cells: HEK293T
T11 sequence (Q13075 256-391): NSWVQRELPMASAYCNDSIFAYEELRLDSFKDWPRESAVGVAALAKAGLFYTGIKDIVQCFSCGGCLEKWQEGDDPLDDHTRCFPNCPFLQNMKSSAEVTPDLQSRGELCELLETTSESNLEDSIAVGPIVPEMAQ

[18] = biological target: T12, BIRC3 BIR1 (Homo sapiens, UniProt Q13489); test: NanoBRET tracer titration, BIRC3 BIR1; format: cell-based; settings: single domain, n = 4; read-out: Tracer KD,app ± SEM, BIRC3 BIR1
T12 construct: N6 S116; expressed in transfected cells; host or cells: HEK293T
T12 sequence (Q13489 6-116): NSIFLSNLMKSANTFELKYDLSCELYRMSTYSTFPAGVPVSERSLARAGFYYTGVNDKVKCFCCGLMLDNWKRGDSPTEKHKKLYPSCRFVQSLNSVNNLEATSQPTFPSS

[19] = biological target: BIRC3 BIR3 (Homo sapiens, UniProt Q13489); test: NanoBRET cellular target engagement, single domain BIRC3 BIR3; settings: Tracer KD,app ± SEM, BIRC3 BIR3, single domain, n = 4
Chain of BIRC3 BIR3 (Q13489 236-360): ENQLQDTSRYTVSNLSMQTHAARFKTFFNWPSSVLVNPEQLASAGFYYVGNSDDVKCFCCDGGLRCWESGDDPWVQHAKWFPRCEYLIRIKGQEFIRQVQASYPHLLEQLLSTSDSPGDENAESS
Description: as §1

CNC(C)C(=O)NC(C(=O)N1CCCC1c1nc(C(=O)c2cccc(OCCOCCOCCNC(=O)CCc3ccc4n3[B-](F)(F)[N+]3=C(c5ccc[nH]5)C=CC3=C4)c2)cs1)C1CCCCC1 (centres unmarked) [IAP Tracer]
Kd ([1]; Tracer K D, full-length BIRC7, full-length): < 250 nM
Kd ([1]; Tracer KD,app ± SEM, BIRC7, full-length, n = 4): 250 ± 20 nM
Kd [2]: 2760 ± 340 nM
Kd [3]: 1670 nM and > 1000 nM
Kd [4]: > 4000 nM
Kd ([5]; Tracer K D, full-length BIRC3, full-length): < 250 nM
Kd ([5]; Tracer KD,app ± SEM, BIRC3, full-length, n = 4): 190 ± 30 nM
Kd [6]: > 4000 nM
Kd ([7]; Tracer K D, app, BIRC2-BIR3 domain, single domain): 50 ± 10 nM
Kd ([7]; Tracer KD,app ± SEM, BIRC2 BIR3, single domain, n = 4): < 1000 nM
Kd [8]: 2600 nM and > 1000 nM
Kd [9]: 1790 nM and > 1000 nM
Kd ([10]; Tracer K D, full-length BIRC4, full-length): < 250 nM
Kd ([10]; Tracer KD,app ± SEM, BIRC4, full-length, n = 4): 40 nM
Kd [11]: 540 nM and < 1000 nM
Kd [12]: > 4000 nM
Kd [13]: 2750 nM and > 1000 nM
Kd [14]: 2420 nM and > 1000 nM
Kd [15]: < 250 nM and 20 nM
Kd [16]: 1060 ± 350 nM
Kd [17]: < 4000 nM and > 4000 nM and > 1000 nM
Kd [18]: 2310 nM and > 1000 nM
Kd [19]: 380 nM and < 1000 nM
